# In paper PMC5995184, “Potent anti-leukemic activity of a specific cyclin-dependent kinase 9 inhibitor in mouse models of chronic lymphocytic leukemia” (Oncotarget, 2018):
# pIC50: −log10 of the molar value. Read-outs that look alike come from different tables or passages of the source.
# What was measured:
# [1] = tested on: primary CLL cells (CLL PBMC); assay: Primary CLL cells apoptosis, viability, MCL-1/BCL-2 (flow cytometry); format: cell-based, human; conditions: for pIC50: Homo sapiens, CLL cell, read-out: IC50, absolute number of viable CLL PBMC
# Description: The MEC-1 cell line was obtained from the DSMZ (Braunschweig, Germany) and was cultured in RPMI (10% fetal bovine serum). A LDC526 stock solution was prepared with DMSO, diluted and added to the cultures to reach the specified concentrations. Samples (percentage of CD19+CD5+ CLL cells >90%) of n=37 CLL patients (Table 1) and n=6 healthy normal donor controls were used for experiments after obtaining informed consent according to institutional guidelines, approved by the Ethics Commission of the University of Essen-Duisburg. Peripheral blood mononuclear cells (PBMC) were isolated using Lymphoprep ([…] Technologies, Cologne, Germany) density gradient centrifugation and were used directly for NSG transplantation or in vitro experiments. Untouched normal donor B cells were isolated with a B cell isolation kit (Miltenyi, Bergisch Gladbach, Germany) according to the manufacturer’s instructions. For in vitro experiments, cells were maintained in RPMI supplemented with 10% fetal bovine serum, penicillin and streptomycin.
# Apoptosis and cell death were determined by using Annexin V (BD Biosciences, Heidelberg, Germany) and 4′,6-Diamidin-2-phenylindol (DAPI, Sigma-Aldrich) staining. Erythrocytes of murine peripheral blood samples were lysed with NH4Cl hypotonic solution. Single cell suspensions of murine spleens were prepared as previously described. Murine cells were stained with antibodies directed against murine CD3 (clone 145-2C11), CD5 (53-7.3) and CD19 (1D3), respectively. For the detection of human cells in NSG spleens antibodies against human CD3 (clone SK7), CD4 (SK3), CD5 (L17F12), CD8 (SK1), CD19 (J3-119 or SJ25C1) and CD45 (2D1) were used (purchased from BD Bioscience, Biolegend and Beckman Coulter). Flow cytometric analysis was carried out on a LSRII flow cytometer (BD Biosciences, Heidelberg, Germany). Flow cytometric data were analyzed with BD FACSDiva or FlowJo software (FLOWJO, LLC, Ashland, OR, USA). Intracellular staining for MCL-1 and BCL-2 (anti-MCL-1 [clone D2W9E, Cell Signaling Technology, Leiden, The Netherlands] and matched isotype control [clone DA1E, Cell Signaling Technology]; anti-BCL-2 [clone Bcl-2/100, BD Bioscience] and matched isotype control [clone MOPC-21, BD Bioscience]) within MEC-1 and primary CLL cells was performed with the FoxP3 / Transcription factor staining buffer set (eBioscience/Thermo Fisher Scientific, Dreieich, Germany) according to the manufacturer’s instructions. Before permeabilization and antibody incubation cells were stained with a fixable viability dye (eFluor 450, eBioscience/Thermo Fisher Scientific). Before adding the anti-MCL-1 and anti-BCL-2 antibodies permeabilized cells were blocked with 2% mouse serum and 2% rabbit serum (Sigma-Aldrich) in permeabilization buffer. Intracellullar murine lymphocyte staining for Bcl-2 was carried out with the BD Cytofix/Cytoperm kit according to the manufacturer’s instructions. A Hamster Anti-mouse Bcl-2 (clone 3F119, BD Biosciences) and a corresponding isotype control (clone A19-3) were used. Dead cells and doublets were excluded by and FSC/SSC gating and positive DAPI or eFluor 450 viability dye staining, respectively. To assess the impact of LDC526 on the cell-cycle status of MEC-1 cells we used the BrdU Flow Kit according to the manufacturer’s protocol (BD Bioscience). BrdU was added to the media 30 minutes before commencing the analysis.
# (§1) Data were analyzed with GraphPad Prism 7 software. Differences were assessed by unpaired or paired Student t tests if not indicated otherwise. Two-sided probabilities of less than 0.05 were considered significant. Nonlinear regression sigmoidal dose-response curve fit was used to determine the IC50 values and to generate graphs.
# CDK6-Cyclin D3 [2] = assay: FRET-based LANCE Ultra in vitro enzymatic kinase assay, CDK6; format: biochemical
# Description: (§2) IC50 values for CDK inhibitors were determined using the fluorescence resonance energy transfer (FRET)-based LANCE Ultra KinaSelect Ser/Thr kit (Perkin Elmer). Kinase activity and inhibition were measured according to the manufacturer’s instructions and as previously described. […] FRET signals were recorded in a time-resolved manner in a Perkin Elmer EnVision reader. Purified cyclin-kinase pairs were obtained from the following suppliers: Carna Biosciences (CDK1-Cyclin B1, CDK6-Cyclin D3, CDK7-Cyclin H-MAT1), ProQinase (CDK2-Cyclin A) and Invitrogen (CDK9-Cyclin T1).
# as §1
# CDK6-Cyclin D3 [3] = molecular target: T1, CDK6-Cyclin D3 (Homo sapiens, UniProt Q00534); assay: as above; format: biochemical
# T1 construct: purchased Carna Biosciences
# Description: as §2, §1
# CDK1-Cyclin B1 = molecular target: T2, CDK1-Cyclin B1 (Homo sapiens, UniProt P06493); assay: FRET-based LANCE Ultra in vitro enzymatic kinase assay, CDK1; format: biochemical
# T2 construct: purchased Carna Biosciences
# Description: as §2, §1
# [4] = 4 hours, increasing concentrations
# T1 sequence (Q00534 whole entry): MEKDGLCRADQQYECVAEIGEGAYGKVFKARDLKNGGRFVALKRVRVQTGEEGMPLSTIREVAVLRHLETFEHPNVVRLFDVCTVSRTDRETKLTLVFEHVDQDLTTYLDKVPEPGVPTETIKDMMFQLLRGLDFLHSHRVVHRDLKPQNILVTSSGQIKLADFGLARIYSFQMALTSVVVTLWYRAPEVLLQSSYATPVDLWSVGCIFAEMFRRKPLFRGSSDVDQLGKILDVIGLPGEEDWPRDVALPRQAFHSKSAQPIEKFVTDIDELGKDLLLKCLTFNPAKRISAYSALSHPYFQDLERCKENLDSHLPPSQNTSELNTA
# T1 sequence (P30281 whole entry partner): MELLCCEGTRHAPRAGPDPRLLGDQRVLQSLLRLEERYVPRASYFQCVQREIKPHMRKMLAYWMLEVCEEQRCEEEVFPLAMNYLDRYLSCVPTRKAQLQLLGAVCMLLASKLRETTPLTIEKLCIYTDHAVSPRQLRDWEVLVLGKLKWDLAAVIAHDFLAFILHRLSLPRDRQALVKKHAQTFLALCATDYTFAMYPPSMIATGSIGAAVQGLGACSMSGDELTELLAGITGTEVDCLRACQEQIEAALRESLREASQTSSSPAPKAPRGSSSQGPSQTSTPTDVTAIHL
# T2 sequence (P06493 whole entry): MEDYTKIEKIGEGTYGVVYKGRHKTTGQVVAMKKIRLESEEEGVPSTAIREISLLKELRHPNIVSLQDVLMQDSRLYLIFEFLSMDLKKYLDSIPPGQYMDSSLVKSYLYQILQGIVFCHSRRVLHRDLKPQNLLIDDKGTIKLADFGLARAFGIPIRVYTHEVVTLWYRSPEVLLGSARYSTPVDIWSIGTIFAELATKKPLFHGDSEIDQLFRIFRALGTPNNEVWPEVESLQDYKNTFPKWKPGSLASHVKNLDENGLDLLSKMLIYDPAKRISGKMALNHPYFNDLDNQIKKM
# T2 sequence (P14635 whole entry partner): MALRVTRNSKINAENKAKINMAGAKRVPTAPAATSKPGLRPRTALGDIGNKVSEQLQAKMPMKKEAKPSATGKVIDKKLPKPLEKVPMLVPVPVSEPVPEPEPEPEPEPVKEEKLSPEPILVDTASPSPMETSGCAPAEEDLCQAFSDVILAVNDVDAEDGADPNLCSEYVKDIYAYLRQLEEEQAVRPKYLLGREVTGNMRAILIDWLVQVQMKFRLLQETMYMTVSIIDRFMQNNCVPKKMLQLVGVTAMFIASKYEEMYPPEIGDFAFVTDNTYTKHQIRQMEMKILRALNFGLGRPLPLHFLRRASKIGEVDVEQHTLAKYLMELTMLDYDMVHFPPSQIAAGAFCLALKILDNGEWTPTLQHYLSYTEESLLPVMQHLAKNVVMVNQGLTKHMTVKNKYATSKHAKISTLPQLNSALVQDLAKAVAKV
compound,measurement,setting,value
"COc1cc(F)ccc1-c1ncnc(Nc2cccc(CS(N)(=O)=O)c2)n1 [LDC526, (3-((4-(4-fluoro-2-methoxyphenyl)-1,3,5-triazin-2-yl)amino)phenyl)methane-sulfonamide]",apoptosis of primary CLL PBMCs (Annexin V),"[1]; 4 hours, 500 and 1000 nM",significantly increased percentages of apoptosis
same,BCL-2 levels in primary CLL cells,[1]; [4],not significantly altered
same,MCL-1 protein levels in primary CLL cells,[1]; [4],significantly decreased MCL-1 protein levels
same,pIC50,[1]; 24 hours incubation,6.47
same,pIC50,[1]; 48 hours incubation,6.55
same,"LDC526-induced effect between prognostic CLL subgroups (FISH, CD38, Binet, therapy)",[1]; high-risk versus low-risk,no statistically significant differences
same,selectivity versus CDK9 compared to CDK6,CDK6-Cyclin D3 [2],> 900 fold
same,pIC50,CDK6-Cyclin D3 [3],< 5.00
same,selectivity versus CDK9 compared to CDK1,CDK1-Cyclin B1,82 fold
